Biological target: Gnp2 (CR_09920W) (Candida albicans, UniProt A0A1D8PU37)
Conditions: 10 mM proline as sole carbon source, YNB, ammonium sulfate, pH 4.5, 37 °C, 6 h

Sequence of Gnp2 (CR_09920W) (A0A1D8PU37 entry or part of it): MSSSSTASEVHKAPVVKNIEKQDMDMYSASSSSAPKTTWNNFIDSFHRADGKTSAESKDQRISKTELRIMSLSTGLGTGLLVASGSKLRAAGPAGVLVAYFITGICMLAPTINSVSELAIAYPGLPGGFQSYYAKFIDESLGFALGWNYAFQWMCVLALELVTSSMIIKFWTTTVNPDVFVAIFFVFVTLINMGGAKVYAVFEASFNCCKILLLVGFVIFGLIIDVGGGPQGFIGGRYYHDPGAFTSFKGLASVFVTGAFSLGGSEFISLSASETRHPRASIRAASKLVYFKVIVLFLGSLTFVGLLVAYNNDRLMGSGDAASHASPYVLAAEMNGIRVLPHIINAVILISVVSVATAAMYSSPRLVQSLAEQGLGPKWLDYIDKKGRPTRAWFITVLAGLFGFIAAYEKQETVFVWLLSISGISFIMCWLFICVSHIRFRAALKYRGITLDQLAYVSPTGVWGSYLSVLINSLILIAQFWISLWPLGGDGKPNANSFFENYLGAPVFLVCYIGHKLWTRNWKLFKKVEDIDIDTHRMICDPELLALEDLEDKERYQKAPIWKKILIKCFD

O=C(O)[C@@H]1CCCN1 [proline]
LC-MS of extracellular proline, wild type vs gnp2 deletion vs complemented cells: extracellular proline concentration was significantly reduced in the wild type and the GNP2 complemented strain

Source: PMC8787483 (mBio, 2022)
